Test results published in patent US6281194A, “Cycloalkyl inhibitors of protein farnesyltransferase” (Warner-Lambert Company, priority 1999, dated 2001).
Like-named read-outs stand apart in the source and are kept apart here.

Tests used:
[1] = target: T1, SF9 affinity purified rat farnesyl protein transferase (Rattus norvegicus, UniProt Q02293+Q04631); test: PFT inhibitory activity; format: biochemical
T1 construct: made in house; host or cells: Sf9 insect cells (baculovirus system, inferred from b7)
Description: The protein:farnesyltransferase (PFT) or farnesyl protein transferase (FPT) inhibitory activity of compounds of the present invention were assayed in HEPES buffer (pH 7.4) containing 5 mM potassium phosphate and 20 μM ZnCl2. The solution also contained 5 mM DTT (dithiothreitol), 5 mM MgCl2 and 0.1% PEG 8000. Assays were performed in 96 well plates (Wallec) and employed solutions composed of varying concentrations of a compound of the present invention in 100% DMSO (dimethylsulfoxide). Upon addition of both substrates, radiolabeled farnesyl pyrophosphate ([1-^3 H], specific activity 15-30 Ci/mmol, final concentration 134 nM) and (biotinyl)-Ahe-Thr-Lys-Cys-Val-Ile-Met ([3aS[3a alpha, 4 beta, 6a alpha]-hexahydro-2-oxo-1H-thieno[3,4-d]imidazole-5-pentanoic acid]-[7-aminoheptanoic acid]-Thr-Lys-Cys-Val-Ile-Met) (Ahe is 7-aminoheptanoic acid, Thr is threonine, Lys is lysine, Cys is cysteine, Val is valine, Ile is isoleucine and Met is methionine) (final concentration 0.2 μM), the enzyme reaction was started by addition of SF9 affinity purified rat farnesyl protein transferase. After incubation at 30° C. for 30 minutes, the reaction was terminated by diluting the reaction 2.5-fold with a stop buffer containing 1.5 M magnesium acetate, 0.2 M H3 PO4, 0.5% BSA (bovine serum albumin), and strepavidin beads (Amersham) at a concentration of 1.3 mg/mL. After allowing the plate to settle for 30 minutes at room temperature, radioactivity was quantitated on a microBeta counter (Model 1450, Wallec). The assay was also carried out without 5 mM potassium phosphate.

[2] = test system: ras farnesylation in ras-transformed cells; test: Gel shift assay; format: cell-based; details: 18-hour incubation
Description: Twenty-four hours after planting 2×10^6 ras-transformed cells per treatment condition, the farnesylation inhibitor is added at varying concentrations. Following an 18-hour incubation period, cells are lysed in phosphate-buffered saline containing 1% Triton X-100, 0.5% sodium deoxycholate, and 0.1% SDS (sodium dodecyl sulfate), pH 7.4 in the presence of several protease inhibitors (PMSF (phenylmethylsulfonylfluoride), antipain, leupeptin, pepstatin A, and aprotinin all at 1 μg/mL). Ras protein is immunoprecipitated from the supernatants by the addition of 3 μg v-H-ras Ab-2 (Y13-259 antibody from Oncogene Science). After overnight immunoprecipitation, 30 μL of a 50% protein G-Sepharose slurry (Pharmacia) is added followed by 45-minute incubation. Pellets are resuspended in 2× tris-glycine loading buffer (Novex) containing 5% β-mercaptoethanol and then denatured by 5 minutes boiling prior to electrophoresis on 14% Tris-glycine SDS gels. Using Western transfer techniques, proteins are transferred to nitrocellulose membranes followed by blocking in blocking buffer. Upon overnight incubation with primary antibody (pan-ras Ab-2 from Oncogene Science), an antimouse HRP (horse radish peroxidase) conjugate secondary antibody (Amersham) is employed for detection of the ras protein. Blots are developed using ECL(enhanced chemiluminescence) techniques (Amersham).

H61 xenografts = test: In vivo activity, H61 xenografts in NCR-NU mice
Description: Female NCR-NU mice were randomized and then inoculated with trocar fragments of H61 xenografts obtained from donor animals on Day 0 of the experiment. H61 cells are NIH3T3 cells that have been transfected and transformed with mutant human H-ras. The animals were then re-randomized to treatment groups. Tumor-bearing mice were then treated via subcutaneous (SC) or interperitoneal (IP) injections of Example 1 every 12 hours at various dose levels for 14 days beginning on Day 1. Tumors were measured with calipers in two orthogonal dimensions several times per week for the duration of the experiment. Tumor burdens in milligrams were estimated from the caliper measurements by standard methods (mg=axb^2 /2, where a and b are the measurements of the major and minor axes of the tumor, respectively.) Inhibition of tumor growth was assessed at the last day of treatment (14). […] In mice given Example 1 IP at either 37 or 23 mg/kg/injection, no tumors were evident at the sites of inoculation, indicating complete (100%) inhibition of tumor growth.

[3] = test system: H61 cells: NIH transformed 3T3 H-ras cells; test: Clonogenic assay (6 well plates); format: cell-based; details: H61 cells in soft agar, colonies counted after Day 13
Description: Clonogenic Assay (6 well plates)
Sometime previous to setting up an actual test:
1. Make up 1.5% Bacto Agar in Milli-Q water and autoclave.
2. Make up 500 mL 2× DMEM-HG without phenol red by combining the following:
1 bottle DMEM base powder (Sigma D-5030)
Adjust pH to 7.1 with HCl; filter sterilize.
1. Set up makeshift water bath (beaker of water with thermometer, on hot plate) in the hood. Keep water temperature between 37° C. to 43° C.
2. […] 1.5% Bacto Agar for approximately 2 minutes on high, or until completely melted. Then let it cool somewhat before using it. (You can keep it from resolidifying by setting the bottle on the hot plate.) […]
Bottom Layer (0.6% agar) Top Layer (0.3% agar)
20% calf serum 20% calf serum
40% Bacto Agar (1.5%) 20% Bacto Agar (1.5%)
(H61 cells: NIH transformed
Depending on the volume of each layer needed, use either 50 mL conical tubes or 200 mL turnip tubes which can be floated in the "water bath".
4. Add 1 mL of bottom layer agar/medium to each well: deliver 1 mL warm agar/medium to a well; then using the tip of the pipet, spread the agar/medium around to completely cover the bottom. Repeat with next well.
5. Allow the plates to set at room temperature for about 5 minutes until the bottom layer solidifies.
6. Label sterile Falcon 2054 (12×75 mm) tubes and add appropriate volume of drug solutions into them.
7. Aliquot 4 μL of DMSO or drug solution per 1 mL of agar/medium to appropriate tubes; then add the agar/medium/cells to each tube. Always add 1 mL more than will actually be needed. Mix up and down in the pipet (gently); then deliver 1 mL to the center of each well. The upper layer is less viscous, so it will generally spread out over the bottom layer unaided. If necessary, rotate the plane of the plate gently to spread the top layer evenly over the bottom layer.
8. Let plates set for 5 or 10 minutes at room temperature to solidify, then put into 5% CO2, 37° C. incubator.
9. On Day 13, add 0.5 mL of INT (tetrazolium 1 mg/mL in Milli-Q H2 O, filter sterilized) and return plates to incubator.

[4] = HEPES buffer pH 7.4 with 5 mM potassium phosphate, read-out: PFT Inhibitory Activity IC50 (μM) HEPES and 5 mM K3 PO4
[5] = HEPES buffer pH 7.4 without 5 mM potassium phosphate, read-out: PFT Inhibitory Activity IC50 (μM) HEPES
[6] = SC 96 mg/kg/injection every 12 hours for 14 days, last day of treatment (14)

Row | Compound | IC50 [1, 4] [µM] | IC50 [1, 5] [µM] | Gel Shift (μM) M.E.D. (minimal effective dose to observe inhibition of ras farnesylation) [2] [µM] | inhibition of tumor growth (H61 xenografts; IP 23 mg/kg/injection every 12 hours for 14 days, no tumors evident at sites of inoculation) [%] | inhibition of tumor growth (H61 xenografts; IP 37 mg/kg/injection every 12 hours for 14 days, no tumors evident at sites of inoculation) [%] | inhibition of tumor growth (H61 xenografts; [6]) [%] | median tumor burden of the treated group (H61 xenografts; [6]) [mg] | inhibition of tumor growth (in words) (H61 xenografts; SC or IP every 12 hours for 14 days) | IC50 [3] [nM] | IC50 ([3]; 312 h) [nM]
1 | C/C=C/CN(CC(=O)NCC1(c2ccccc2)CCC1)C(=O)[C@H](Cc1cnc[nH]1)NC(=O)OCc1ccccc1 (stereo in doubt) [Example 10, [(S)-trans]-[1-(But-2-enyl-{[(1-phenyl-cyclobutylmethyl)-carbamoyl]-methyl}-carbamoyl)-2-(3H-imidazol-4-yl)-ethyl]-carbamic Acid benzyl Ester] | 0.36 | < 0.001 | ≤ 0.05 |  |  |  |  |  |  | 
2 | O=C(CN(Cc1ccc(OCc2ccccc2)cc1)C(=O)[C@H](Cc1c[nH]cn1)NC(=O)OCc1ccccc1)NCC1(c2ccccc2)CCC1 [Example 1, (S)-[1-((4-Benzyloxy-benzyl)-{[1-(phenyl-cyclobutylmethyl)-carbamoyl]-methyl}-carbamoyl)-2-(1H-imidazol-4-yl)-ethyl]-carbamic Acid benzyl ester] | 0.006 | 0.075 | 0.02 | 100 | 100 | 73 | 672 | significantly inhibited tumor growth | 47 | 
3 | O=C(CN(Cc1ccc(OCc2ccccc2)cc1)C(=O)[C@H](Cc1c[nH]cn1)NC(=O)OCc1ccccc1)NCC1(c2ccccc2)CCCC1 [Example 5, (S)-[1-((4-Benzyloxy-benzyl)-{[(1-phenyl-cyclopentylmethyl)-carbamoyl]-methyl}-carbamoyl)-2-(1H-imidazol-4-yl)-ethyl]-carbamic Acid benzyl Ester] | 0.018 | 0.32 | 0.2 |  |  |  |  |  |  | 320
4 | O=C(CN(Cc1ccc(OCc2ccccc2)cc1)C(=O)[C@H](Cc1c[nH]cn1)NC(=O)OCc1ccccc1)NCC1(c2c(Cl)cccc2Cl)CCC1 [Example 9, (S)-[1-[(4-Benzyloxy-benyl)-({[1-(2,6-dichlorophenyl)-cyclobutylmethyl]-carbamoyl}-methyl)-carbamoyl]-2-(1H-imidazol-4-yl)-ethyl]-carbamic Acid benzyl Ester] | 0.18 | 7 | > 0.2 |  |  |  |  |  |  | 
5 | CCCN(CC(=O)NCC1(c2ccccc2)CCC1)C(=O)[C@H](Cc1cnc[nH]1)NC(=O)OCc1ccccc1 [Example 11] | 0.33 | < 0.001 | ≤ 0.05 |  |  |  |  |  |  | 
6 | N-((1S)-1-(1H-4-imidazolylmethyl)-2-oxo-2-(2-oxo-2-[(1-phenylcyclobutyl)methyl]aminoethyl)[(1R)-1-phenylethyl]aminoethyl)carbamate [Example 12] | 0.34 | 0.002 | ≤ 0.05 |  |  |  |  |  |  | 

Continued, in another order:

Row | IC50 [1, 4] [µM] | IC50 [1, 5] [µM] | Compound | Gel Shift (μM) M.E.D. (minimal effective dose to observe inhibition of ras farnesylation) [2] [µM] | inhibition of tumor growth (H61 xenografts; IP 23 mg/kg/injection every 12 hours for 14 days, no tumors evident at sites of inoculation) [%] | inhibition of tumor growth (H61 xenografts; IP 37 mg/kg/injection every 12 hours for 14 days, no tumors evident at sites of inoculation) [%] | inhibition of tumor growth (H61 xenografts; [6]) [%] | median tumor burden of the treated group (H61 xenografts; [6]) [mg] | inhibition of tumor growth (in words) (H61 xenografts; SC or IP every 12 hours for 14 days) | IC50 [3] [nM] | IC50 ([3]; 312 h) [nM]
7 | 0.006 | 0.15 | O=C(CN(Cc1ccc(OCc2ccccc2)cc1)C(=O)[C@H](Cc1c[nH]cn1)NC(=O)OCc1ccccc1)NCC1(c2ccccc2)CC1 [Example 2] | 0.02 |  |  |  |  |  | 180 | 
8 | 0.0017 | 0.14 | O=C(CN(Cc1ccc(OCc2ccccn2)cc1)C(=O)[C@H](Cc1c[nH]cn1)NC(=O)OCc1ccccc1)NCC1(c2ccccc2)CCC1 [Example 3] | 0.002 |  |  |  |  |  | 140 | 
9 | 0.0054 | 0.26 | Cc1ccc(CN(CC(=O)NCC2(c3ccccc3)CCC2)C(=O)[C@H](Cc2c[nH]cn2)NC(=O)OCc2ccccc2)cc1 [Example 4, (S)-[1-((4-Methyl-benzyl)-{[(1-phenyl-cyclobutyl-methyl)-carbamoyl]-methyl}-carbamoyl)-2-(1H-imidazol-4-yl)-ethyl]-carbamic Acid Benzyl Ester] | 0.01 |  |  |  |  |  |  | 
10 | 0.0029 | 0.26 | COc1ccc(CN(CC(=O)NCC2(c3ccccc3)CCC2)C(=O)[C@H](Cc2c[nH]cn2)NC(=O)OCc2ccccc2)cc1 [Example 6, (S)-[1-((4-Methoxy-benzyl)-{[(1-phenyl-cyclobutyl-methyl)-carbamoyl]-methyl}-carbamoyl)-2-(1H-imidazol-4-yl)-ethyl]-carbamic Acid benzyl Ester] | 0.002 |  |  |  |  |  |  | 210
11 | 0.003 | 0.014 | Cc1ccc(CN(CC(=O)NCC2(c3ccccc3)CCC2)C(=O)[C@H](Cc2c[nH]cn2)NC(=O)N(C)Cc2ccccc2)cc1 [Example 7, (S)-2-(3-Benzyl-3-methyl-ureido)-3-(1H-imidazol-4-yl)-N-(4 methyl-benyl)-N-{[(1-phenyl-cyclobutylmethy)-carbomyl]-methyl}-propionamide] | 0.01 |  |  |  |  |  |  | 
12 | 0.015 | 0.068 | CN(Cc1ccccc1)C(=O)N[C@@H](Cc1c[nH]cn1)C(=O)N(CC(=O)NCC1(c2ccccc2)CCC1)Cc1ccc(OCc2ccccc2)cc1 [Example 8, (S)-2-(3-Benzyl-3-methyl-ureido)-N-(4-benzyloxy-benzyl)-3-(1H-imidazol-4-yl)-N-{[(1-phenyl-cyclobutylmethyl)-carbamoyl]-methyl}-propionamide] | 0.01 |  |  |  |  |  |  | 
